# Data reported in article PMC12860872, “Preclinical evaluation of DOTAGA.Glu.(FAPI)2 and DO3A.Glu.(FAPI)2 as theranostics with human dosimetry extrapolation to lutetium-177 and terbium-161 analogs” (European Journal of Nuclear Medicine and Molecular Imaging, 2025).
# Where “and” joins values, the source holds several entries; their conditions need not be identical. Identical values can stand only once.
# Assay: Extrapolated human dosimetry (OLINDA/EXM, ICRP-89 phantoms)
# Parameters: TIAC average pancreas: unit not given beside the values; TIAC average stomach / TIAC average Small Intestine / TIAC average Left Column / TIAC average Rectum / TIAC average adrenal / TIAC average bone / TIAC average Red marrow / TIAC average salivary glands / TIAC average ROB / TIAC average Total Frac IA / TIAC average heart content / TIAC average heart wall / TIAC average liver / TIAC average spleen / TIAC average lung / TIAC average kidney: unit not given here
# Experimental: To address inter-animal variability, the TIACs for each source organ were calculated from both the mean nTACs and the nTACs obtainend from fitting the mean ± 1 standard deviation (SD) of the normalized time-activity data, providing upper and lower bounds.
# The mice-to-human TIAC extrapolation accounted for species-specific differences in relative source organ masses, m(organ), as compared to the total body weight (WB), for the mice (m) and human (h) models respectively.
# The human organ masses, m(organ)h, were obtained from ICRP-89 adult male and female reference phantoms, while the murine organ masses, m(organ)m, were derived from the standard MOBY mouse model. The extrapolated human TIACs, TIACh were entered in the OLINDA/EXM software to compute the absorbed doses to target organs and the effective dose for adult male, female, and gender-averaged human models. […]
# The TIACs, for [177Lu]Lu-DOTAGA.Glu.(FAPI)2 and [177Lu]Lu-DO3A.Glu.(FAPI)2, were determined by time integration of the nTACs. To account for the inter-animal variability, the TIACs for each source organ were calculated using both the mean nTACs and the nTACs obtainend from fitting the mean ±1 standard deviation (SD) of the normalized time-activity data. This approach provided the upper and the lower bounds for the estimated TIACs.
# The mice-to-human TIAC extrapolation was obtained considering the different (species-specific) relative source organ masses, m(organ), as compared to the total body weight (WB), for the mice (m) and human (h) models respectively.
# The human organ masses, m(organ)h, were obtained from the adult male and female reference models phantoms defined in ICRP-89, while the murine organ masses, m(organ)m, were derived from the standard MOBY mouse model. The extrapolated human TIACs values, TIACh, for each source organ were input into the kinetic module of the OLINDA/EXM software (version 2.1, HERMES Medical Solutions AB, Stockholm, Sweden) to compute the absorbed doses to target organs and the effective dose for adult male, female, and gender-averaged human models. […]
# [1] = ICRP 89 Adult Female, extrapolated
# [2] = ICRP 89 Adult Male, extrapolated
# [3] = human extrapolation, male-female range
structure (smiles),measurement,setting,value
N#C[C@@H]1CC(F)(F)CN1C(=O)CNC(=O)c1ccnc2ccc(OCCCCNC(=O)CC[C@H](NC(=O)CCC(C(=O)O)N3CCN(CC(=O)[O-])CCN(CC(=O)[O-])CCN(CC(=O)[O-])CC3)C(=O)NCCCCOc3ccc4nccc(C(=O)NCC(=O)N5CC(F)(F)C[C@H]5C#N)c4c3)cc12.[177Lu+3] (stereo partly shown) [[^177Lu]Lu-DOTAGA.Glu.(FAPI)2],Absorbed dose (AD average) Adrenals,[1],1.46E-02 mGy/Mbq
same,Absorbed dose (AD average) Brain,[1],2.94E-02 mGy/Mbq
same,Absorbed dose (AD average) Breasts,[1],2.88E-02 mGy/Mbq
same,Absorbed dose (AD average) Esophagus,[1],3.06E-02 mGy/Mbq
same,Absorbed dose (AD average) Eyes,[1],2.94E-02 mGy/Mbq
same,Absorbed dose (AD average) Gallbladder Wall,[1],3.30E-02 mGy/Mbq
same,Absorbed dose (AD average) Heart Wall,[1],4.42E-02 mGy/Mbq
same,Absorbed dose (AD average) Kidneys,[1],4.97E-02 ± 0.002 mGy/Mbq and 4.97E-02 mGy/Mbq
same,Absorbed dose (AD average) Left colon,[1],1.05E-01 mGy/Mbq
same,Absorbed dose (AD average) Liver,[1],2.00E-01 ± 0.02 mGy/Mbq and 2.00E-01 mGy/Mbq
same,Absorbed dose (AD average) Lungs,[1],4.59E-02 ± 0.004 mGy/Mbq and 4.59E-02 mGy/Mbq
same,Absorbed dose (AD average) Osteogenic Cells,[1],8.92E-02 ± 0.01 mGy/Mbq and 8.92E-02 mGy/Mbq
same,Absorbed dose (AD average) Ovaries,[1],3.09E-02 mGy/Mbq
same,Absorbed dose (AD average) Pancreas,[1],3.90E-02 ± 0.002 mGy/Mbq and 3.90E-02 mGy/Mbq
same,Absorbed dose (AD average) Rectum,[1],1.07E-01 mGy/Mbq
same,Absorbed dose (AD average) Red Marrow,[1],3.24E-02 ± 0.003 mGy/Mbq and 3.24E-02 mGy/Mbq
same,Absorbed dose (AD average) Right colon,[1],6.88E-02 mGy/Mbq
same,Absorbed dose (AD average) Salivary Glands,[1],1.26E-01 ± 0.004 mGy/Mbq and 1.26E-01 mGy/Mbq
same,Absorbed dose (AD average) Small Intestine,[1],5.84E-02 ± 0.02 mGy/Mbq and 5.84E-02 mGy/Mbq
same,Absorbed dose (AD average) Spleen,[1],3.53E-02 ± 0.01 mGy/Mbq and 3.53E-02 mGy/Mbq
same,Absorbed dose (AD average) Stomach Wall,[1],4.24E-02 mGy/Mbq
same,Absorbed dose (AD average) Thymus,[1],3.04E-02 mGy/Mbq
same,Absorbed dose (AD average) Thyroid,[1],2.95E-02 mGy/Mbq
same,Absorbed dose (AD average) Total Body,[1],4.42E-02 ± 0.01 mGy/Mbq and 4.42E-02 mGy/Mbq
same,Absorbed dose (AD average) Urinary Bladder Wall,[1],3.05E-02 mGy/Mbq
same,Absorbed dose (AD average) Uterus,[1],3.10E-02 mGy/Mbq
same,Effective dose (average),[1],4.71E-02
same,Absorbed dose (AD average) Adrenals,[2],1.17E-02 mGy/Mbq
same,Absorbed dose (AD average) Brain,[2],1.98E-02 mGy/Mbq
same,Absorbed dose (AD average) Esophagus,[2],2.11E-02 mGy/Mbq
same,Absorbed dose (AD average) Eyes,[2],1.97E-02 mGy/Mbq
same,Absorbed dose (AD average) Gallbladder Wall,[2],2.49E-02 mGy/Mbq
same,Absorbed dose (AD average) Heart Wall,[2],3.66E-02 mGy/Mbq
same,Absorbed dose (AD average) Kidneys,[2],4.08E-02 ± 0.002 mGy/Mbq and 4.08E-02 mGy/Mbq
same,Absorbed dose (AD average) Left colon,[2],8.56E-02 mGy/Mbq
same,Absorbed dose (AD average) Liver,[2],1.64E-01 ± 0.01 mGy/Mbq and 1.64E-01 mGy/Mbq
same,Absorbed dose (AD average) Lungs,[2],3.74E-02 ± 0.003 mGy/Mbq and 3.74E-02 mGy/Mbq
same,Absorbed dose (AD average) Osteogenic Cells,[2],9.26E-02 ± 0.01 mGy/Mbq and 9.26E-02 mGy/Mbq
same,Absorbed dose (AD average) Pancreas,[2],3.11E-02 ± 0.002 mGy/Mbq and 3.11E-02 mGy/Mbq
same,Absorbed dose (AD average) Prostate,[2],2.04E-02 mGy/Mbq
same,Absorbed dose (AD average) Rectum,[2],8.54E-02 mGy/Mbq
same,Absorbed dose (AD average) Red Marrow,[2],2.38E-02 ± 0.002 mGy/Mbq and 2.38E-02 mGy/Mbq
same,Absorbed dose (AD average) Right colon,[2],5.39E-02 mGy/Mbq
same,Absorbed dose (AD average) Salivary Glands,[2],1.03E-01 ± 0.004 mGy/Mbq and 1.03E-01 mGy/Mbq
same,Absorbed dose (AD average) Small Intestine,[2],4.17E-02 ± 0.01 mGy/Mbq and 4.17E-02 mGy/Mbq
same,Absorbed dose (AD average) Spleen,[2],2.87E-02 ± 0.01 mGy/Mbq and 2.87E-02 mGy/Mbq
same,Absorbed dose (AD average) Stomach Wall,[2],3.05E-02 mGy/Mbq
same,Absorbed dose (AD average) Testes,[2],1.95E-02 mGy/Mbq
same,Absorbed dose (AD average) Thymus,[2],2.03E-02 mGy/Mbq
same,Absorbed dose (AD average) Thyroid,[2],2.02E-02 mGy/Mbq
same,Absorbed dose (AD average) Total Body,[2],3.25E-02 ± 0.003 mGy/Mbq and 3.25E-02 mGy/Mbq
same,Absorbed dose (AD average) Urinary Bladder Wall,[2],2.03E-02 mGy/Mbq
same,Effective dose (average),"ICRP 89 Adult Male, extrapolated, in mSv/MBq (unit assumed)",3.40E-02
same,absorbed dose kidneys,[3],0.04–0.05 Gy/GBq
same,absorbed dose liver,[3],0.16–0.20 Gy/GBq
same,absorbed dose salivary glands,[3],0.10–0.13 Gy/GBq
same,total body and effective doses,[3],0.033–0.044 Gy/GBq
same,TIAC average Left Column,"human female, extrapolated",0.1373
same,TIAC average ROB,"human female, extrapolated",18.6076
same,TIAC average Rectum,"human female, extrapolated",0.1420
same,TIAC average Red marrow,"human female, extrapolated",0.2030
same,TIAC average Small Intestine,"human female, extrapolated",0.1803
same,TIAC average Total Frac IA,"human female, extrapolated",25.6850
same,TIAC average adrenal,"human female, extrapolated",0.0011
same,TIAC average bone,"human female, extrapolated",4.9073
same,TIAC average heart content,"human female, extrapolated",0.0834
same,TIAC average heart wall,"human female, extrapolated",0.0889
same,TIAC average kidney,"human female, extrapolated",0.1445
same,TIAC average liver,"human female, extrapolated",3.1244
same,TIAC average lung,"human female, extrapolated",0.4651
same,TIAC average pancreas,"human female, extrapolated",0.0460
same,TIAC average salivary glands,"human female, extrapolated",0.1012
same,TIAC average spleen,"human female, extrapolated",0.0480
same,TIAC average stomach,"human female, extrapolated",0.0626
same,TIAC average Left Column,"human male, extrapolated",0.1129
same,TIAC average ROB,"human male, extrapolated",15.0586
same,TIAC average Rectum,"human male, extrapolated",0.1129
same,TIAC average Red marrow,"human male, extrapolated",0.2169
same,TIAC average Small Intestine,"human male, extrapolated",0.1684
same,TIAC average Total Frac IA,"human male, extrapolated",25.6850
same,TIAC average adrenal,"human male, extrapolated",0.0009
same,TIAC average bone,"human male, extrapolated",5.5459
same,TIAC average heart content,"human male, extrapolated",0.0945
same,TIAC average heart wall,"human male, extrapolated",0.0965
same,TIAC average kidney,"human male, extrapolated",0.1339
same,TIAC average liver,"human male, extrapolated",3.3017
same,TIAC average lung,"human male, extrapolated",0.4829
same,TIAC average pancreas,"human male, extrapolated",0.0441
same,TIAC average salivary glands,"human male, extrapolated",0.1010
same,TIAC average spleen,"human male, extrapolated",0.0456
same,TIAC average stomach,"human male, extrapolated",0.0557
